Experimental data taken from PubChem BioAssay (NCI).
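Test compounds were applied to cells in 96-well plates for 48 hours at 5 doses. Abbreviation: GI50, concentration required for 50% inhibition of growth. Definition used: TGI = concentration required for complete inhibition of growth.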

How the values were obtained:
Experiment in all cases: growth of human tumour cells (NCI), 48 h
786-0 renal = tested on: 786-0 renal
A498 renal = tested on: A498 renal
A549 NSCLC = tested on: A549 NSCLC
ACHN renal = tested on: ACHN renal
BT-549 breast = tested on: BT-549 breast
CAKI-1 renal = tested on: CAKI-1 renal
CCRF-CEM leukemia = tested on: CCRF-CEM leukemia
COLO 205 colon = tested on: COLO 205 colon
DU-145 prostate = tested on: DU-145 prostate
EKVX NSCLC = tested on: EKVX NSCLC
HCC-2998 colon = tested on: HCC-2998 colon
HCT-116 colon = tested on: HCT-116 colon
HCT-15 colon = tested on: HCT-15 colon
HL-60(TB) leukemia = tested on: HL-60(TB) leukemia
HOP-62 NSCLC = tested on: HOP-62 NSCLC
HOP-92 NSCLC = tested on: HOP-92 NSCLC
HS 578T breast = tested on: HS 578T breast
HT29 colon = tested on: HT29 colon
IGROV1 ovarian = tested on: IGROV1 ovarian
K-562 leukemia = tested on: K-562 leukemia
KM12 colon = tested on: KM12 colon
LOX IMVI melanoma = tested on: LOX IMVI melanoma
M14 melanoma = tested on: M14 melanoma
MALME-3M melanoma = tested on: MALME-3M melanoma
MCF7 breast = tested on: MCF7 breast
MDA-MB-231 breast = tested on: MDA-MB-231 breast
MDA-MB-435 = tested on: MDA-MB-435
MOLT-4 leukemia = tested on: MOLT-4 leukemia
NCI-H226 lung = tested on: NCI-H226 lung
NCI-H23 lung = tested on: NCI-H23 lung
NCI-H460 lung = tested on: NCI-H460 lung
NCI-H522 lung = tested on: NCI-H522 lung
NCI/ADR-RES ovarian = tested on: NCI/ADR-RES ovarian
OVCAR-3 ovarian = tested on: OVCAR-3 ovarian
OVCAR-4 ovarian = tested on: OVCAR-4 ovarian
OVCAR-5 ovarian = tested on: OVCAR-5 ovarian
OVCAR-8 ovarian = tested on: OVCAR-8 ovarian
PC-3 prostate = tested on: PC-3 prostate
RPMI-8226 leukemia = tested on: RPMI-8226 leukemia
RXF 393 renal = tested on: RXF 393 renal
SF-268 CNS = tested on: SF-268 CNS
SF-295 CNS = tested on: SF-295 CNS
SF-539 CNS = tested on: SF-539 CNS
SK-MEL-2 melanoma = tested on: SK-MEL-2 melanoma
SK-MEL-28 melanoma = tested on: SK-MEL-28 melanoma
SK-MEL-5 melanoma = tested on: SK-MEL-5 melanoma
SK-OV-3 ovarian = tested on: SK-OV-3 ovarian
SN12C renal = tested on: SN12C renal
SNB-19 CNS = tested on: SNB-19 CNS
SNB-75 CNS = tested on: SNB-75 CNS
SR leukemia = tested on: SR leukemia
SW-620 colon = tested on: SW-620 colon
T-47D breast = tested on: T-47D breast
TK-10 renal = tested on: TK-10 renal
U251 CNS = tested on: U251 CNS
UACC-257 melanoma = tested on: UACC-257 melanoma
UACC-62 melanoma = tested on: UACC-62 melanoma
UO-31 renal = tested on: UO-31 renal

In the case of `CCCCCn1sc(=O)n(Cc2ccc(CNC(=O)C(C)c3ccc(CC(C)C)cc3)cc2)c1=O` (stereo not given), the GI50 (786-0 renal) is reported as 0.747 µM, the TGI (786-0 renal) is reported as 2.06 µM and the GI50 (A498 renal) is reported as 1.46 µM. The TGI (A498 renal) was 2.81 µM, the GI50 (A549 NSCLC) was 1.65 µM and the TGI (A549 NSCLC) was 4.26 µM. For the same molecule, the GI50 (ACHN renal) was 0.498 µM, the TGI (ACHN renal) was 1.73 µM and the GI50 (BT-549 breast) was 0.972 µM. For the same molecule, the TGI (BT-549 breast) was 2.23 µM, the GI50 (CAKI-1 renal) was 0.562 µM and the TGI (CAKI-1 renal) was 1.92 µM. It also gave a GI50 (CCRF-CEM leukemia) of 0.337 µM, a GI50 (COLO 205 colon) of 0.598 µM and a TGI (COLO 205 colon) of 2.08 µM. For the same molecule, the GI50 (DU-145 prostate) was 1.17 µM, the TGI (DU-145 prostate) was 2.4 µM and the GI50 (EKVX NSCLC) was 1.41 µM. For the same molecule, the TGI (EKVX NSCLC) was 2.82 µM, the GI50 (HCC-2998 colon) was 1.87 µM and the TGI (HCC-2998 colon) was 3.42 µM. For the same molecule, the GI50 (HCT-116 colon) was 0.194 µM, the TGI (HCT-116 colon) was 0.72 µM and the GI50 (HCT-15 colon) was 0.424 µM. The TGI (HCT-15 colon) was 1.62 µM, the GI50 (HL-60(TB) leukemia) was 1.68 µM and the TGI (HL-60(TB) leukemia) was over 20.5 µM. For the same molecule, the GI50 (HOP-62 NSCLC) was 1.41 µM, the TGI (HOP-62 NSCLC) was 3.35 µM and the GI50 (HOP-92 NSCLC) was 0.577 µM. For the same molecule, the TGI (HOP-92 NSCLC) was 2.09 µM, the GI50 (HS 578T breast) was 1.56 µM and the TGI (HS 578T breast) was 4.36 µM. For the same molecule, the GI50 (HT29 colon) was 0.949 µM, the TGI (HT29 colon) was 2.55 µM and the GI50 (IGROV1 ovarian) was 0.645 µM. For the same molecule, the TGI (IGROV1 ovarian) was 2 µM, the GI50 (K-562 leukemia) was 0.602 µM and the TGI (K-562 leukemia) was over 61.1 µM. The GI50 (KM12 colon) was 1.59 µM, the TGI (KM12 colon) was 3.3 µM and the GI50 (LOX IMVI melanoma) was 0.474 µM. It also gave a TGI (LOX IMVI melanoma) of 1.52 µM, a GI50 (M14 melanoma) of 0.631 µM and a TGI (M14 melanoma) of 1.92 µM. The GI50 (MALME-3M melanoma) was 1.43 µM, the TGI (MALME-3M melanoma) was 2.8 µM and the GI50 (MCF7 breast) was 0.56 µM. The TGI (MCF7 breast) was 2.26 µM, the GI50 (MDA-MB-231 breast) was 1.18 µM and the TGI (MDA-MB-231 breast) was 2.46 µM. It also gave a GI50 (MDA-MB-435) of 0.876 µM, a TGI (MDA-MB-435) of 2.17 µM and a GI50 (MOLT-4 leukemia) of 0.848 µM. For the same molecule, the TGI (MOLT-4 leukemia) was over 22.5 µM, the GI50 (NCI-H226 lung) was 1.3 µM and the TGI (NCI-H226 lung) was 2.67 µM. For the same molecule, the GI50 (NCI-H23 lung) was 1.45 µM, the TGI (NCI-H23 lung) was 2.96 µM and the GI50 (NCI-H460 lung) was 1.46 µM. It also gave a TGI (NCI-H460 lung) of 3.07 µM, a GI50 (NCI-H522 lung) of 0.162 µM and a TGI (NCI-H522 lung) of 2.11 µM. For the same molecule, the GI50 (NCI/ADR-RES ovarian) was 1.65 µM, the TGI (NCI/ADR-RES ovarian) was 5.54 µM and the GI50 (OVCAR-3 ovarian) was 0.488 µM. The TGI (OVCAR-3 ovarian) was 1.63 µM, the GI50 (OVCAR-4 ovarian) was 0.999 µM and the TGI (OVCAR-4 ovarian) was 2.42 µM. For the same molecule, the GI50 (OVCAR-5 ovarian) was 1.56 µM, the TGI (OVCAR-5 ovarian) was 3.19 µM and the GI50 (OVCAR-8 ovarian) was 1.09 µM. For the same molecule, the TGI (OVCAR-8 ovarian) was 2.73 µM, the GI50 (PC-3 prostate) was 0.876 µM and the TGI (PC-3 prostate) was 2.47 µM. It also gave a GI50 (RPMI-8226 leukemia) of 0.353 µM, a TGI (RPMI-8226 leukemia) of 2.1 µM and a GI50 (RXF 393 renal) of 0.727 µM. It also gave a TGI (RXF 393 renal) of 1.94 µM, a GI50 (SF-268 CNS) of 1.52 µM and a TGI (SF-268 CNS) of 2.96 µM. The GI50 (SF-295 CNS) was 1.74 µM, the TGI (SF-295 CNS) was 3.92 µM and the GI50 (SF-539 CNS) was 1.19 µM. The TGI (SF-539 CNS) was 2.44 µM, the GI50 (SK-MEL-2 melanoma) was 1.5 µM and the TGI (SK-MEL-2 melanoma) was 2.98 µM. It also gave a GI50 (SK-MEL-28 melanoma) of 1.43 µM, a TGI (SK-MEL-28 melanoma) of 2.75 µM and a GI50 (SK-MEL-5 melanoma) of 1.61 µM. It also gave a TGI (SK-MEL-5 melanoma) of 2.96 µM, a GI50 (SK-OV-3 ovarian) of 3.5 µM and a TGI (SK-OV-3 ovarian) of 14.7 µM. For the same molecule, the GI50 (SN12C renal) was 1.1 µM, the TGI (SN12C renal) was 2.37 µM and the GI50 (SNB-19 CNS) was 1.55 µM. The TGI (SNB-19 CNS) was 2.91 µM, the GI50 (SNB-75 CNS) was 0.431 µM and the TGI (SNB-75 CNS) was 1.86 µM. For the same molecule, the GI50 (SR leukemia) was 0.452 µM, the TGI (SR leukemia) was 5.77 µM and the GI50 (SW-620 colon) was 0.37 µM. It also gave a TGI (SW-620 colon) of 1.46 µM, a GI50 (T-47D breast) of 1.6 µM and a TGI (T-47D breast) of 4.05 µM. The GI50 (TK-10 renal) was 0.736 µM, the TGI (TK-10 renal) was 2.05 µM and the GI50 (U251 CNS) was 1.56 µM. The TGI (U251 CNS) was 3.04 µM, the GI50 (UACC-257 melanoma) was 1.48 µM and the TGI (UACC-257 melanoma) was 3.02 µM. For the same molecule, the GI50 (UACC-62 melanoma) was 1.3 µM, the TGI (UACC-62 melanoma) was 2.62 µM and the GI50 (UO-31 renal) was 0.561 µM. It also gave a TGI (UO-31 renal) of 1.99 µM.
